The target in data set [1] is HBV core protein (C-terminal truncated core protein containing 149 amino acids of the N-terminal assembly domain) (UniProt P03146). The data set can be described thus: Biochemical capsid assembly assay (fluorescence quenching). On the set-up: rows headed: Assembly Activity; other: BODIPY-FL labelled core protein, assembly started with NaCl, read after 6 min. The following applies: read-out: Assembly Activity; BODIPY-FL labelled core protein, assembly started with NaCl, read after 6 min. In short, it runs like this:
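N-terminal assembly domain (residues 1–149) plus C-terminal Cys150, E. coli-expressed, BODIPY-FL-maleimide labelled, used at 1.0–2.0 μM in 50 mM HEPES pH 7.5 with 0.5% DMSO. Assembly started with NaCl ([…]); fluorescence quenching (ex 477/em 525 nm) read after 6 min. 8-point compound series; EC50 by non-linear regression.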

Another data set relates to HBV. As to the kind of experiment: Determination of HBV DNA from the supernatants of HepAD38 cells (anti-HBV activity). The following applies: HBV DNA in HepAD38 supernatant, day 6, qPCR, read-out: Cell Activity. The data set is classed as cell-based, hepatitis B virus. In short, it runs like this:
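HepAD38 cells (60,000/well) seeded in tetracycline-free medium to induce HBV, treated with half-log serial compound dilutions for 6 days at 37 °C. HBV DNA purified from filtered supernatant and quantified by real-time PCR against HBV plasmid standards; EC50 from relative copy numbers by non-linear regression.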
In general terms: Quantitative PCR measures a nucleic acid by following its amplification.

The test system of the next data set is HepAD38 cells. As to the kind of experiment: Cell viability assay (AlamarBlue). The following applies: 0.3 μg/ml tetracycline, six days incubation, AlamarBlue. A general note: Alamar Blue is a resazurin reagent that responds to reducing activity.
Data set [2] can be described thus: Cell viability assay (AlamarBlue). The note with it: human, HepAD38 cells.
[3] abbreviates: Hepatitis B virus, HePAD38, 144 h.

As a reminder, the CC50 is the concentration giving 50% cytotoxicity. Higher therefore signals better tolerance by the cells.

Where two headings read alike, the source gives them in different places. Some results are limits rather than exact numbers.

Chain of HBV core protein (C-terminal truncated core protein containing 149 amino acids of the N-terminal assembly domain) (P03146 whole entry, the tested form may be a part): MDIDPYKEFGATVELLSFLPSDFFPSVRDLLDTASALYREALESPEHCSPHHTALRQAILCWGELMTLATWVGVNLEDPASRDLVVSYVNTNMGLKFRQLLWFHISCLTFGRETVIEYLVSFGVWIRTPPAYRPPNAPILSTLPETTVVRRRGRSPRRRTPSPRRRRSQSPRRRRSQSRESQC

Consider `COCC1(N(C)C(=O)c2cnn3c2CN(C(=O)c2cc4ccccc4[nH]2)C(C)C3)CC1` (single isomer, unassigned) [Example 70, 5-(1H-indole-2-carbonyl)-N-[1-(methoxymethyl)cyclopropyl]-N,6-dimethyl-4H,5H,6H,7H-pyrazolo[1,5-a]pyrazine-3-carboxamide], for which, in data set [1], the IC50 was less than 5 µM. Besides, the EC50 with HBV was less than 1 µM. Also, in the data set on HepAD38 cells, the CC50 was greater than 10 µM.

For `CC1Cn2ncc(C(=O)N(C)C3CC3)c2CN1C(=O)c1cc2ccccc2[nH]1` (single isomer, unassigned) [Example 71, N-cyclopropyl-5-(1H-indole-2-carbonyl)-N,6-dimethyl-4H,5H,6H,7H-pyrazolo[1,5-a]pyrazine-3-carboxamide], the IC50 in data set [1] was less than 5 µM. Also, the EC50 in the data set on HBV is less than 1 µM. For the same compound, the half-maximal cytotoxic concentration (CC50) with HepAD38 cells was greater than 10 µM.

As for `CC1Cn2ncc(C(=O)NC3(COC(F)F)CC3)c2CN1C(=O)c1cc2ccccc2[nH]1` (single isomer, unassigned) [Example 132, N-{1-[(difluoromethoxy)methyl]cyclopropyl}-5-(1H-indole-2-carbonyl)-6-methyl-4H,5H,6H,7H-pyrazolo[1,5-a]pyrazine-3-carboxamide], the IC50 in data set [1] was less than 5 µM. Further, the EC50 with HBV was less than 1 µM. In the data set with HepAD38 cells, the CC50 was greater than 10 µM.

Regarding `CN(CCO)C(=O)c1cnn2c1CN(C(=O)c1cc3c(F)cc(F)cc3[nH]1)CC2` [Example 129, 5-(4,6-difluoro-1H-indole-2-carbonyl)-N-(2-hydroxyethyl)-N-methyl-4H,5H,6H,7H-pyrazolo[1,5-a]pyrazine-3-carboxamide], the IC50 in data set [1] is less than 5 µM. Besides, the EC50 with HBV (setting [3]) is less than 1 µM. The same compound gave a CC50 at 6 days in data set [2] greater than 10 µM.

As to `CN(C(=O)c1cnn2c1CN(C(=O)c1cc3ccccc3[nH]1)CC2)C1CCC1` [Example 133, N-cyclobutyl-5-(1H-indole-2-carbonyl)-N-methyl-4H,5H,6H,7H-pyrazolo[1,5-a]pyrazine-3-carboxamide], the IC50 in data set [1] was less than 5 µM. Further, in the data set with HBV (setting [3]), the EC50 was 1 to 10 µM. Besides, the CC50 at 6 days in data set [2] was greater than 10 µM.

Regarding `O=C(NC1COC1)c1cnn2c1CN(C(=O)c1cc3ccccc3[nH]1)CC2` [Example 134, 5-(1H-indole-2-carbonyl)-N-(oxetan-3-yl)-4H,5H,6H,7H-pyrazolo[1,5-a]pyrazine-3-carboxamide], the IC50 in data set [1] was less than 5 µM. Moreover, the EC50 in the data set with HBV (setting [3]) was in the range of 1 to 10 µM. This compound also yielded a CC50 at 6 days in data set [2] greater than 10 µM.

With `CN(C(=O)c1cnn2c1CN(C(=O)c1cc3ccccc3[nH]1)CC2)C1COC1` [Example 135, 5-(1H-indole-2-carbonyl)-N-methyl-N-(oxetan-3-yl)-4H,5H,6H,7H-pyrazolo[1,5-a]pyrazine-3-carboxamide], the IC50 in data set [1] was less than 5 µM. The EC50 in the data set with HBV (setting [3]) is less than 1 µM. Besides, in data set [2], the CC50 at 6 days is greater than 10 µM.

With `CN(C(=O)c1cnn2c1CN(C(=O)c1cc3ccccc3[nH]1)CC2)C1(C)COC1` [Example 136, 5-(1H-indole-2-carbonyl)-N-methyl-N-(3-methyloxetan-3-yl)-4H,5H,6H,7H-pyrazolo[1,5-a]pyrazine-3-carboxamide], the IC50 in data set [1] was less than 5 µM. Further, in the data set on HBV (setting [3]), the EC50 was in the range of 1 to 10 µM. Moreover, the CC50 at 6 days in data set [2] is greater than 10 µM.

In the case of `CN(CC1(O)CCC1)C(=O)c1cnn2c1CN(C(=O)c1cc3ccccc3[nH]1)CC2` [Example 137, N-[(1-hydroxycyclobutyl)methyl]-5-(1H-indole-2-carbonyl)-N-methyl-4H,5H,6H,7H-pyrazolo[1,5-a]pyrazine-3-carboxamide], in data set [1], the IC50 was less than 5 µM. Further, in the data set on HBV (setting [3]), the EC50 is less than 1 µM. For the same compound, the half-maximal cytotoxic concentration (CC50) at 6 days in data set [2] was greater than 10 µM.

Turning to `CN(C(=O)c1cnn2c1CN(C(=O)c1cc3ccccc3[nH]1)CC2)C1(C2OCCO2)CC1` [Example 138, N-[1-(1,3-dioxolan-2-yl)cyclopropyl]-5-(1H-indole-2-carbonyl)-N-methyl-4H,5H,6H,7H-pyrazolo[1,5-a]pyrazine-3-carboxamide], the IC50 in data set [1] is less than 5 µM. Also, the EC50 in the data set on HBV (setting [3]) was less than 1 µM. Further, the 50% cytotoxic concentration (CC50) at 6 days in data set [2] is greater than 10 µM.

With `O=C(NC1(COC(F)F)CC1)c1cnn2c1CN(C(=O)c1cc3cc(F)c(F)cc3[nH]1)CC2` [Example 139, 5-(5,6-difluoro-1H-indole-2-carbonyl)-N-{1-[(difluoromethoxy)methyl]cyclopropyl}-4H,5H,6H,7H-pyrazolo[1,5-a]pyrazine-3-carboxamide], in data set [1], the IC50 was less than 5 µM. For the same compound, the EC50 in the data set on HBV (setting [3]) is less than 1 µM. This compound showed a CC50 at 6 days in data set [2] greater than 10 µM.

Turning to `CN(C(=O)c1cnn2c1CN(C(=O)c1cc3ccccc3[nH]1)CC2)C1([C@H]2OC[C@H](N)CO2)CC1` [Example 141, 5-(1H-indole-2-carbonyl)-N-methyl-N-{1-[(2r,5r)-5-amino-1,3-dioxan-2-yl]cyclopropyl}-4H,5H,6H,7H-pyrazolo[1,5-a]pyrazine-3-carboxamide], the IC50 in data set [1] is less than 5 µM. In addition, the EC50 with HBV (setting [3]) was less than 1 µM. Besides, the CC50 at 6 days in data set [2] was greater than 10 µM.

As to `CC1Cn2ncc(C(=O)N[C@H](C)C(F)(F)F)c2CN1C(=O)c1cc2ccccc2[nH]1` (stereo partly drawn) [Example 142, 5-(1H-indole-2-carbonyl)-6-methyl-N-[(2R)-1,1,1-trifluoropropan-2-yl]-4H,5H,6H,7H-pyrazolo[1,5-a]pyrazine-3-carboxamide], the IC50 in data set [1] is less than 5 µM. Besides, the EC50 in the data set with HBV (setting [3]) is less than 1 µM. In data set [2], the CC50 at 6 days is greater than 10 µM.

`CC1Cn2ncc(C(=O)N[C@H](C)C(F)(F)F)c2CN1C(=O)c1cc2c(F)c(F)ccc2[nH]1` (stereo partly drawn) [Example 143, 5-(4,5-difluoro-1H-indole-2-carbonyl)-6-methyl-N-[(2R)-1,1,1-trifluoropropan-2-yl]-4H,5H,6H,7H-pyrazolo[1,5-a]pyrazine-3-carboxamide]: the IC50 in data set [1] was less than 5 µM. For the same compound, the EC50 in the data set with HBV (setting [3]) was less than 1 µM. Besides, the CC50 at 6 days in data set [2] was greater than 10 µM.

`Cc1c(F)ccc2[nH]c(C(=O)N3Cc4c(C(=O)N[C@H](C)C(F)(F)F)cnn4CC3C)cc12` (stereo partly drawn) [Example 144, 5-(5-fluoro-4-methyl-1H-indole-2-carbonyl)-6-methyl-N-[(2R)-1,1,1-trifluoropropan-2-yl]-4H,5H,6H,7H-pyrazolo[1,5-a]pyrazine-3-carboxamide]: in data set [1], the IC50 is less than 5 µM. Moreover, in the data set on HBV (setting [3]), the EC50 is less than 1 µM. For the same compound, the half-maximal cytotoxic concentration (CC50) at 6 days in data set [2] was greater than 10 µM.

As to `CC1Cn2ncc(C(=O)N[C@H](C)C(F)(F)F)c2CN1C(=O)c1cc2c(Cl)cccc2[nH]1` (stereo partly drawn) [Example 145, 5-(4-chloro-1H-indole-2-carbonyl)-6-methyl-N-[(2R)-1,1,1-trifluoropropan-2-yl]-4H,5H,6H,7H-pyrazolo[1,5-a]pyrazine-3-carboxamide], the IC50 in data set [1] was less than 5 µM. For the same compound, in the data set with HBV (setting [3]), the EC50 was less than 1 µM. This compound also registered a CC50 at 6 days in data set [2] greater than 10 µM.

For the compound `Cc1cc(F)cc2[nH]c(C(=O)N3Cc4c(C(=O)N[C@H](C)C(F)(F)F)cnn4CC3C)cc12` (stereo partly drawn) [Example 146, 5-(6-fluoro-4-methyl-1H-indole-2-carbonyl)-6-methyl-N-[(2R)-1,1,1-trifluoropropan-2-yl]-4H,5H,6H,7H-pyrazolo[1,5-a]pyrazine-3-carboxamide], the IC50 in data set [1] is less than 5 µM. In the data set with HBV (setting [3]), the EC50 is less than 1 µM. In data set [2], this compound yielded a CC50 at 6 days greater than 10 µM.

For the compound `CC1Cn2ncc(C(=O)N[C@H](C)C(F)(F)F)c2CN1C(=O)c1cc2cc(F)c(Cl)cc2[nH]1` (stereo partly drawn) [Example 147, 5-(6-chloro-5-fluoro-1H-indole-2-carbonyl)-6-methyl-N-[(2R)-1,1,1-trifluoropropan-2-yl]-4H,5H,6H,7H-pyrazolo[1,5-a]pyrazine-3-carboxamide], the IC50 in data set [1] is less than 5 µM. Also, the EC50 in the data set on HBV (setting [3]) is less than 1 µM. In data set [2], this compound gave a CC50 at 6 days greater than 10 µM.

In the case of `O=C(NC1(CCOC(F)F)COC1)c1cnn2c1CN(C(=O)c1cc3ccccc3[nH]1)CC2` [Example 148, N-{3-[2-(difluoromethoxy)ethyl]oxetan-3-yl}-5-(1H-indole-2-carbonyl)-4H,5H,6H,7H-pyrazolo[1,5-a]pyrazine-3-carboxamide], the IC50 in data set [1] is less than 5 µM. The EC50 with HBV (setting [3]) is less than 1 µM. Also, the CC50 at 6 days in data set [2] was greater than 10 µM.

Values taken from patent publication US20220363686A1 (AiCuris GmbH & Co. KG, priority 2018, published 2022).
